Test results published in PubChem BioAssay AID256 (DTP/NCI, 2004).
“And” between values parts separate entries of the source, which are not always exact repeats. Equal entries are not always repeated. Inconclusive results and toxic doses are left out. Rule for the calls: active = survival T/C of 150% or more; inactive = T/C below 125% in these data.

Tested on: CD2F1 mice, L1210 leukemia ip, survival T/C
Experiment: NCI In Vivo Anticancer Drug Screen. Data for tumor model L1210 Leukemia (intraperitoneal) in CD2F1 (CDF1) mice
Settings: higher = longer survival
Procedure, shortened: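 Implant tumor; dose compound or vehicle; measure endpoint in both groups; report treated divided by control.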

[1] = endpoint: mean survival time, dose: 50.0 mg/kg/injection, schedule: Q01DX009 (ip), vehicle: saline with Tween-80
[2] = endpoint: mean survival time, dose: 100.0 mg/kg/injection, schedule: Q01DX009 (ip), vehicle: saline with Tween-80
[3] = endpoint: mean survival time, dose: 200.0 mg/kg/injection, schedule: Q01DX009 (ip), vehicle: saline with Tween-80
[4] = endpoint: mean survival time, dose: 100.0 mg/kg/injection, schedule: Q04DX002 (ip), vehicle: saline with Tween-80
[5] = endpoint: mean survival time, dose: 100.0 mg/kg/injection, schedule: Q04DX003 (ip), vehicle: saline with Tween-80
[6] = endpoint: mean survival time, dose: 200.0 mg/kg/injection, schedule: Q04DX003 (ip), vehicle: saline with Tween-80
[7] = endpoint: mean survival time, dose: 400.0 mg/kg/injection, schedule: Q04DX003 (ip), vehicle: saline with Tween-80
[8] = endpoint: mean survival time, dose: 100.0 mg/kg/injection, schedule: Q01DX001 (ip), vehicle: saline with Tween-80
[9] = endpoint: mean survival time, dose: 200.0 mg/kg/injection, schedule: Q01DX001 (ip), vehicle: saline with Tween-80
[10] = endpoint: mean survival time, dose: 400.0 mg/kg/injection, schedule: Q01DX001 (ip), vehicle: saline with Tween-80
[11] = endpoint: mean survival time, dose: 200.0 mg/kg/injection, schedule: Q04DX002 (ip), vehicle: saline with Tween-80
[12] = endpoint: mean survival time, dose: 400.0 mg/kg/injection, schedule: Q01DX009 (ip), vehicle: saline with Tween-80
[13] = endpoint: mean survival time, dose: 25.0 mg/kg/injection, schedule: Q01DX009 (ip), vehicle: saline with Tween-80
[14] = endpoint: mean survival time, dose: 12.5 mg/kg/injection, schedule: Q01DX009 (ip), vehicle: saline with Tween-80

Measured: T/C

O=COC1CC2CC1C1CCCC21 (configuration not stated)
inactive: [1] 95 % of control | [2] 93 % of control | [3] 97 % of control

Cc1cc(C)c2nc(N)sc2c1
inactive: endpoint: mean survival time, dose: 25.0 mg/kg/injection, schedule: Q04DX002 (ip), vehicle: saline with Tween-80 96 % of control | endpoint: mean survival time, dose: 50.0 mg/kg/injection, schedule: Q04DX002 (ip), vehicle: saline with Tween-80 93 % of control | [4] 93 % of control

CC(CO)CCC(=O)C(C)C1CC2(C)CCC3C(CCC4CC(O)CCC43C)C2C12SCCS2 (configuration not stated)
inactive: [5] 98 % of control | [6] 102 % of control | [7] 98 % of control

C1CN(SSN2CCOCC2)CCO1
inactive: [5] 100 % of control | [6] 92 % of control

O=C(COc1cccc(Cl)c1)Nc1cccc(NC(=O)c2ccc(S(=O)(=O)F)cc2)c1
inactive: [8] 91 % of control | [9] 90 % of control | [10] 101 % of control

NC(=O)CCc1ccnc2ccccc12
inactive: [4] 96 % of control | [11] 92 % of control

O=C1C=CC(=O)C1
inactive: endpoint: mean survival time, dose: 5.0 mg/kg/injection, schedule: Q04DX002 (ip), vehicle: saline with Tween-80 108 % of control

OC12CC3CC(CC(C3)C1)C2
inactive: endpoint: mean survival time, dose: 50.0 mg/kg/injection, schedule: Q01DX001 (ip), vehicle: saline with Tween-80 104 % of control | [8] 116 % of control | [9] 98 % of control

CCC(C(N)=O)C1=CCCCC1 (configuration not stated)
inactive: [5] 103 % of control | [6] 104 % of control | [7] 101 % of control

O=C1Nc2ccccc2/C1=N/N=C/c1cc(Cl)cc(Cl)c1O
inactive: [8] 94 % of control | [10] 95 % of control

CCN(CC)C(=O)CS(=O)(=O)c1ccc(C)cc1
inactive: [2] 100 % of control | [3] 100 % of control | [12] 101 % of control

OC(C/C=C/c1ccccc1)(c1ccccc1)c1ccccc1
inactive: [2] 93 % of control | [3] 101 % of control | [12] 96 % of control

CN1CC(CO)C(O)C2c3cccc4[nH]cc(c34)CC21 (configuration not stated)
inactive: endpoint: median survival time, dose: 25.0 mg/kg/injection, schedule: Q04DX003 (ip), vehicle: saline with Tween-80 100 % of control | endpoint: median survival time, dose: 50.0 mg/kg/injection, schedule: Q04DX003 (ip), vehicle: saline with Tween-80 100 % of control | endpoint: median survival time, dose: 100.0 mg/kg/injection, schedule: Q04DX003 (ip), vehicle: saline with Tween-80 100 % of control | endpoint: median survival time, dose: 200.0 mg/kg/injection, schedule: Q04DX003 (ip), vehicle: saline with Tween-80 100 % of control

CCN(CC)CC(=O)Nc1c(C)cccc1C
inactive: [13] 95 % of control | [1] 95 % of control | [2] 89 % of control | [5] 95 % of control

S=c1cc(-c2ccccc2)ss1
inactive: [2] 97 % of control | [3] 97 % of control | [12] 98 % of control

O=c1ccc2nc3cc(Cl)ccc3sc-2c1
inactive: endpoint: mean survival time, dose: 100.0 mg/kg/injection, schedule: Q04DX003 (ip), vehicle: Klucel (hydroxypropylcellulose) (HPC) 94 % of control | endpoint: mean survival time, dose: 200.0 mg/kg/injection, schedule: Q04DX003 (ip), vehicle: Klucel (hydroxypropylcellulose) (HPC) 94 % of control | endpoint: mean survival time, dose: 400.0 mg/kg/injection, schedule: Q04DX003 (ip), vehicle: Klucel (hydroxypropylcellulose) (HPC) 94 % of control

CC(=O)c1ccc[n+](Cc2c(Cl)cccc2Cl)c1
inactive: endpoint: mean survival time, dose: 12.5 mg/kg/injection, schedule: Q04DX003 (ip), vehicle: saline 107 % of control | endpoint: mean survival time, dose: 25.0 mg/kg/injection, schedule: Q04DX003 (ip), vehicle: saline 98 % of control | endpoint: mean survival time, dose: 50.0 mg/kg/injection, schedule: Q04DX003 (ip), vehicle: saline 96 % of control

CCOP(=O)(OCC)OC(C)C#N (configuration not stated)
inactive: endpoint: mean survival time, dose: 12.5 mg/kg/injection, schedule: Q01DX009 (ip), vehicle: saline 97 % of control | endpoint: mean survival time, dose: 25.0 mg/kg/injection, schedule: Q01DX009 (ip), vehicle: saline 97 % of control

CC(=O)CC(=O)Nc1ccccc1
inactive: [14] 101 % of control | [13] 97 % of control | [1] 97 % of control

c1ccc2c3c(ccc2c1)CN1CCCCC1C3 (configuration not stated)
inactive: [1] 102 % of control | [2] 100 % of control | [3] 104 % of control

COc1ccc(C(C#N)Nc2ccccc2)cc1 (configuration not stated)
inactive: [2] 106 % of control | endpoint: mean survival time, dose: 100.0 mg/kg/injection, schedule: Q04DX003 (ip), vehicle: saline sonified 97 % of control | [3] 104 % of control | endpoint: mean survival time, dose: 200.0 mg/kg/injection, schedule: Q04DX003 (ip), vehicle: saline sonified 89 % of control | [12] 103 % of control | endpoint: mean survival time, dose: 400.0 mg/kg/injection, schedule: Q04DX003 (ip), vehicle: saline sonified 103 % of control

CC(=O)NC1CCCCC1
inactive: [2] 104 % of control | [3] 102 % of control

N#[N+]c1c(O)ccc2ccccc12
inactive: [4] 107 % of control | [11] 103 % of control | endpoint: mean survival time, dose: 400.0 mg/kg/injection, schedule: Q04DX002 (ip), vehicle: saline with Tween-80 100 % of control

CC(C(=O)O)N(C)N=O (configuration not stated)
inactive: endpoint: mean survival time, dose: 50.0 mg/kg/injection, schedule: Q01DX009 (ip), vehicle: Klucel (hydroxypropylcellulose) (HPC) 104 % of control | endpoint: mean survival time, dose: 100.0 mg/kg/injection, schedule: Q01DX009 (ip), vehicle: Klucel (hydroxypropylcellulose) (HPC) 93 % of control | endpoint: mean survival time, dose: 200.0 mg/kg/injection, schedule: Q01DX009 (ip), vehicle: Klucel (hydroxypropylcellulose) (HPC) 86 % of control

Oc1ccc(O)cc1
inactive: endpoint: mean survival time, dose: 33.0 mg/kg/injection, schedule: Q01DX009 (ip), vehicle: saline 102 % of control and 103 % of control | endpoint: mean survival time, dose: 75.0 mg/kg/injection, schedule: Q01DX001 (ip), vehicle: saline 107 % of control | endpoint: mean survival time, dose: 75.0 mg/kg/injection, schedule: Q01DX009 (ip), vehicle: saline 120 % of control | endpoint: mean survival time, dose: 113.0 mg/kg/injection, schedule: Q01DX009 (ip), vehicle: saline 96 % of control

CC(=O)ON(C(C)=O)c1ccc(C(N)=O)cc1
inactive: endpoint: median survival time, dose: 25.0 mg/kg/injection, schedule: Q01DX009 (ip), vehicle: saline with Tween-80 103 % of control | endpoint: median survival time, dose: 50.0 mg/kg/injection, schedule: Q01DX009 (ip), vehicle: saline with Tween-80 100 % of control | endpoint: median survival time, dose: 100.0 mg/kg/injection, schedule: Q01DX009 (ip), vehicle: saline with Tween-80 101 % of control | endpoint: median survival time, dose: 200.0 mg/kg/injection, schedule: Q01DX009 (ip), vehicle: saline with Tween-80 103 % of control | endpoint: median survival time, dose: 400.0 mg/kg/injection, schedule: Q01DX009 (ip), vehicle: saline with Tween-80 108 % of control

CCCC[N-]CC(O)C[NH-].O=C(O)CC(=O)O.[Pt+2] (configuration not stated)
inactive: endpoint: median survival time, dose: 10.0 mg/kg/injection, schedule: Q04DX003 (ip), vehicle: water 105 % of control | endpoint: median survival time, dose: 20.0 mg/kg/injection, schedule: Q04DX003 (ip), vehicle: water 103 % of control | endpoint: median survival time, dose: 40.0 mg/kg/injection, schedule: Q04DX003 (ip), vehicle: water 105 % of control | endpoint: median survival time, dose: 50.5 mg/kg/injection, schedule: Q04DX003 (ip), vehicle: water 103 % of control | endpoint: median survival time, dose: 80.0 mg/kg/injection, schedule: Q04DX003 (ip), vehicle: water 97 % of control | endpoint: median survival time, dose: 101.0 mg/kg/injection, schedule: Q04DX003 (ip), vehicle: water 103 % of control | endpoint: median survival time, dose: 202.0 mg/kg/injection, schedule: Q04DX003 (ip), vehicle: water 107 % of control

C(=N\Nc1nn[nH]n1)/c1ccccc1
inactive: [13] 105 % of control | [1] 97 % of control | [2] 108 % of control

Oc1ccc(SCc2ccc(NCc3ccccc3)cc2)cc1
inactive: endpoint: mean survival time, dose: 12.5 mg/kg/injection, schedule: Q01DX009 (ip), vehicle: DMSO 95 % of control | [14] 99 % of control | endpoint: mean survival time, dose: 25.0 mg/kg/injection, schedule: Q01DX009 (ip), vehicle: DMSO 97 % of control | [13] 97 % of control | endpoint: mean survival time, dose: 50.0 mg/kg/injection, schedule: Q01DX009 (ip), vehicle: DMSO 97 % of control | [1] 103 % of control | endpoint: mean survival time, dose: 100.0 mg/kg/injection, schedule: Q01DX009 (ip), vehicle: DMSO 92 % of control | [2] 104 % of control | [3] 101 % of control | [12] 101 % of control

CCCCCC(O)/C=C/Sc1n[nH]c(=O)[nH]c1=O (configuration not stated)
inactive: endpoint: mean survival time, dose: 12.5 mg/kg/injection, schedule: Q01DX005 (ip), vehicle: distilled water + Tween-80 104 % of control | endpoint: mean survival time, dose: 25.0 mg/kg/injection, schedule: Q01DX005 (ip), vehicle: distilled water + Tween-80 94 % of control | endpoint: mean survival time, dose: 50.0 mg/kg/injection, schedule: Q01DX005 (ip), vehicle: distilled water + Tween-80 98 % of control | endpoint: mean survival time, dose: 100.0 mg/kg/injection, schedule: Q01DX005 (ip), vehicle: distilled water + Tween-80 90 % of control | endpoint: mean survival time, dose: 200.0 mg/kg/injection, schedule: Q01DX005 (ip), vehicle: distilled water + Tween-80 93 % of control

Cc1cc([N+](=O)[O-])cc(C)c1O
inactive: [5] 100 % of control | [6] 96 % of control | [7] 100 % of control
